Common to all, as to experiment: NCI tumour cell line growth inhibition, 48 h
For assay [1], the system named is 786-0 renal.
The subject of assay [2] is DU-145 prostate.
The subject of assay [3] is HT29 colon.
For assay [4], the system named is IGROV1 ovarian.
For assay [5], the system named is MDA-MB-231 breast.
The test system of assay [6] is NCI-H23 lung.
Assay [7] relates to NCI/ADR-RES ovarian.
Assay [8] has as its system OVCAR-4 ovarian.
Assay [9] concerns SK-MEL-2 melanoma.
The subject of assay [10] is SK-MEL-5 melanoma.
In assay [11] the test system is SN12C renal.
For assay [12], the system named is UACC-257 melanoma.
In assay [13] the test system is RXF 393 renal.

Values joined by “and” are separate entries in the source; they are usually repeats but may differ in a detail not shown here. Equal values may be shown once.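 Values below derive from 48-hour exposures of cells grown in 96-well plates, with endpoints linearly interpolated between the two concentrations bracketing the appropriate inhibition level. GI50 is the concentration that inhibits growth by half. TGI marks complete inhibition of growth.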 Where a SMILES comes first, the peptide text is derived from it. [ ]: non-standard residue; d: D form. The star is where a group is joined. ξ: configuration not given here. ξF = NC(Cc1ccccc1)C(=O)O; Cbz = O=C(OCc1ccccc1)* A value given as a limit tells only on which side of the number the result lay.

As for `COC(=O)c1cc(S(=O)(=O)NC2=NCC(C)NN2)c(S)cc1Cl` (stereo not drawn), the TGI in assay [1], in assay [2], in assay [3], in assay [4], in assay [5] and in assay [6] was more than 100 µM each time. In addition, the TGI in [7] was more than 100 µM; in assay [8], more than 100 µM; in assay [9], 84.5 µM; in [10] it was 82.3 µM; in assay [11], more than 100 µM; in [12], more than 100 µM.

Turning to `COC(=O)c1c(C)cccc1/C=C1\Cc2ccc(C)c(C)c2C1=O`, the TGI in assay [1], in [2], in assay [3], in assay [4], in [5] and in assay [6] was more than 100 µM throughout. Besides, the TGI in [8], in assay [13], in assay [9], in assay [10], in [11] and in assay [12] was more than 100 µM each time.

On to `O=c1[nH]c(N/N=C\C(O)C(O)C(O)C(O)CO)nc2ccccc12` (stereo not drawn), for which the TGI in assay [1], in [2], in assay [3], in assay [4], in [5] and in assay [6] was more than 100 µM in each case. The TGI in assay [7], in assay [9], in [10], in assay [11] and in assay [12] was more than 100 µM each time.

In the case of `Cc1cc2nc3c(C#N)c(-c4ccccc4)/c(=C\Nc4ccc(F)cc4)c(=O)n3c2cc1C`, the TGI in [1], in [4], in assay [5], in [6], in assay [7] and in assay [8] was more than 100 µM throughout. The TGI in assay [13], in assay [9], in assay [10], in assay [11] and in [12] was more than 100 µM throughout.

On to `O=c1cc(Nc2cccc(O)c2)[nH]c(=O)[nH]1`, for which the TGI in assay [1], in assay [3], in [4], in assay [5], in assay [6] and in [7] was more than 100 µM in each case. In addition, the TGI in assay [8], in [13], in assay [9], in assay [10], in assay [11] and in assay [12] was more than 100 µM each time.

With `CCOC(=O)CNC(=O)C(Cc1ccccc1)NC(=O)OCc1ccccc1` (stereo not drawn) (Cbz-[ξF]-Gly-OEt), the TGI in assay [1], in [2], in assay [3], in assay [4], in assay [5] and in assay [6] was more than 100 µM throughout. Further, the TGI in assay [7], in assay [10] and in assay [11] was more than 100 µM in each case.

With `Cc1c(C)c(S(=O)(=O)N(CCCCN)OCCCN)c(C)c2c1OC(C)(C)CC2`, the TGI is 31.9 µM in assay [1]; 57.7 µM in assay [2]; 40.4 µM in assay [3]; 20.2 µM in [4]; 99.4 µM in assay [5]; 38.1 µM in [6]. The TGI is more than 100 µM in assay [7]; 30 µM in assay [8]; 24.9 µM in assay [9]; more than 100 µM in [10]; more than 100 µM in assay [11]; 61.4 µM in assay [12].

For `O=C1c2ccccc2N2OC3(N4CCOCC4)CCCC3C12c1ccccc1` (stereo not drawn), the TGI in [1], in [3], in [4], in [6], in assay [8] and in [13] was more than 100 µM each time. In addition, the TGI in assay [10], in [11] and in assay [12] was more than 100 µM throughout.

Take `O=C(CCc1cc(O)cc(O)c1)NCCc1cc(O)cc(OCc2ccccc2)c1`: the TGI in [1], in [2], in assay [3], in assay [4], in assay [5] and in assay [6] was more than 100 µM each time. Besides, the TGI was more than 100 µM in assay [7]; more than 100 µM in [13]; more than 100 µM in assay [9]; 37.1 µM in assay [10]; more than 100 µM in assay [11]; more than 100 µM in assay [12].

Take `Cn1c(CNc2ccc(-c3n[nH]c(=S)n3C)cc2)n[nH]c1=S`: the TGI in assay [1], in [2], in assay [3], in [4], in [5] and in assay [6] was more than 100 µM in each case. In addition, the TGI in [7], in assay [8], in assay [9], in assay [10], in assay [11] and in [12] was more than 100 µM each time.

With `O=C(c1ccc(Cl)cc1)N(C(=O)N1CCCCC1)c1ccccc1`, the TGI in assay [1], in [2], in assay [3], in [4], in assay [5] and in assay [6] was more than 100 µM each time. In addition, the TGI in [7], in assay [9], in assay [10] and in [11] was more than 100 µM throughout.

Regarding `COC(=O)[C@@]12OC[C@]34C([C@@H](O)C1O)[C@@]1(C)CC(=O)C(OC(=O)CC(C)C(F)(F)F)=C(C)C1C[C@H]3OC(=O)[C@H](O)[C@H]42` (stereo partly drawn), the TGI in [1] is 38.5 µM; in assay [3], more than 62.5 µM; in assay [4] it was 45.5 µM; in [6] it was 8.69 µM; in assay [8] it was more than 62.5 µM; in [13], 23.6 µM. Besides, the TGI was determined as 15.5 µM in assay [9], 22.2 µM in assay [10], 21.2 µM in [11] and 35.3 µM in [12].

`O=C1CC(c2cccc(Cl)c2)Nc2ccc(N3CCCC3)cc21` (stereo not drawn): the TGI in [1] was more than 100 µM; in assay [2] it was 2.25 µM and 13.6 µM; in [3], 0.331 µM; in [5], more than 100 µM; in assay [8] it was more than 100 µM; in assay [13], 0.0845 µM. The TGI in assay [10] is 0.087 µM; in assay [11], 0.0151 µM; in [12], more than 100 µM. For the same compound, the GI50 in [5] is 0.433 µM; in assay [8], 18.6 µM.

For the compound `c1cc(-c2ccc(-c3ccsc3)s2)cs1`, the TGI in assay [1] was more than 100 µM; in [2], more than 100 µM; in assay [3] it was more than 100 µM; in [4] it was more than 100 µM; in assay [6], 61 µM; in [7], 87.5 µM. Further, the TGI in [8] was 57.5 µM; in assay [13], more than 100 µM; in assay [10], more than 100 µM; in assay [11] it was more than 100 µM; in assay [12] it was more than 100 µM.

For `CC(N)(CC(O)(C(F)(F)Cl)C(F)(F)Cl)C(=O)O` (stereo not drawn), the TGI in assay [1], in assay [2], in assay [3], in [4], in assay [5] and in assay [6] was more than 10 µM in each case. For the same compound, the TGI in [7], in [8], in assay [10], in assay [11] and in assay [12] was more than 10 µM in each case.

Regarding `Clc1ccc(C=Nc2ccc(Oc3ccc(Cl)cc3)c(Cl)c2)cc1`, the TGI in assay [1] is 36.1 µM; in [2] it was more than 100 µM; in [3], 55 µM; in [4], more than 100 µM; in [5] it was 47.9 µM; in [6] it was 54.2 µM. The TGI in assay [7] is 58.5 µM; in [8] it was 76.1 µM; in [9] it was 54.2 µM; in assay [10], 49.5 µM; in assay [11], 36.6 µM; in assay [12], 77.5 µM.

Consider `COC(=O)/C=C/c1ccc(OP(=O)(O)O)c(OC)c1`, for which the TGI in assay [1], in assay [2], in [3], in assay [4], in assay [5] and in assay [6] was more than 100 µM each time. The TGI in assay [8], in assay [13], in [9], in [10], in assay [11] and in [12] was more than 100 µM in each case.

Consider `CN1CCOC(C(NC(=O)c2ccccc2)c2ccccc2)C1=O` (stereo not drawn), for which the TGI in [1], in [3], in assay [4], in assay [6], in [8] and in [13] was more than 100 µM each time. For the same compound, the TGI in [9], in assay [10], in assay [11] and in assay [12] was more than 100 µM each time.

As for `COC1(OC)c2occc2C(=N)c2ccc(=O)oc21`, the TGI in assay [1], in assay [2], in [3], in assay [4], in [5] and in assay [6] was more than 100 µM throughout. For the same compound, the TGI in [8] was more than 100 µM; in [13], more than 100 µM; in assay [9], more than 100 µM; in [10] it was 49.2 µM; in [11], more than 100 µM; in assay [12], more than 100 µM.

As to `C[C@H]1CC[C@@]2(OC1)O[C@H]1C[C@H]3[C@@H]4CC[C@@H]5C[C@@H](OC6OC(CO)C(O)C(O)C6OC6OC(CO)C(O)C(O)C6O)CC[C@]5(C)[C@H]4CC[C@]3(C)[C@H]1[C@@H]2C` (stereo partly drawn), the TGI in assay [1] was determined as 3.69 µM; in [2], 4.1 µM; in [3], 3.68 µM; in assay [4] it was 4.14 µM; in [5], 3.81 µM; in assay [6] it was 4.06 µM. Besides, the TGI in assay [7] was 5.03 µM; in [8], 4.08 µM; in [9] it was 4.03 µM; in assay [10], 3.93 µM; in assay [11], 3.77 µM; in [12] it was 3.86 µM.

Regarding `CC(C)(CN1CCCCC1)C(=O)/C=C/c1ccc(Br)cc1`, the TGI stood at 4.72 µM in [1]; 12.6 µM in [3]; 6.48 µM in assay [4]; 9.11 µM in assay [6]; 19.3 µM in assay [8]; 4.48 µM in [13]. Also, the TGI worked out at 9.04 µM in assay [9], 12.6 µM in assay [10], 7.66 µM in [11] and 20.3 µM in [12].

On to `O=C(c1ccccc1)C1(Br)S(=O)(=O)OCCOS1(=O)=O`, for which the TGI in assay [1], in [3], in assay [4], in assay [6], in assay [8] and in assay [13] was more than 100 µM each time. In addition, the TGI in assay [9], in [10], in assay [11] and in assay [12] was more than 100 µM in each case.

Turning to `CCOC(=O)C1S(=O)(=O)OCCOS1(=O)=O`, the TGI in assay [1], in [3], in assay [4], in assay [6], in assay [8] and in assay [9] was more than 100 µM each time. The TGI in [10], in [11] and in assay [12] was more than 100 µM in each case.

As for `O=C(O)CCCc1ccc2c(c1)CC1(C2)Cc2cc3c(cc2C1)CCCC3`, the TGI in assay [1] was determined as 58.6 µM; in [3], 30.4 µM; in [4], 41.4 µM; in assay [6] it was 49.2 µM; in [7], 87.4 µM; in assay [8], 45.6 µM. The TGI in assay [13] is more than 100 µM; in assay [9] it was 35.3 µM; in assay [10], 32.7 µM; in assay [11], 44.1 µM; in assay [12], more than 100 µM.
